Measured values taken from patent US10246437B2, “Crystal form of neratinib maleate and preparation method therefor” (CRYSTAL PHARMATECH CO., LTD, priority 2015, dated 2019).
Values after ≈ are worked out from the molar mass of the structure shown. “Also recorded” adds a separate entry of the source. Structures can show the parent of a compound that is named as a salt.

Key:
[1] = as disclosed in CN101918390B; cited from earlier work
[2] = Solubility comparison in pH 1.8 SGF and high purity water, saturated solutions determined by HPLC; type: physicochemical; details: for Solubility: maleate; for Solubility in comparison to maleate Form II in CN101918390B: pH 1.8 SGF and high purity water, after 1, 4 and 24 hours; for solubility at 1 h / solubility at 4 h / solubility at 24 h: thermodynamic from solid
Experimental: Maleate crystalline Form A, Form B of the present invention and maleate Form II in CN101918390B were added in pH 1.8 SGF (simulated gastric fluid), and in high purity water to obtain suspensions. Concentrations in the saturation solutions were determined after 1 hour, 4 hours and 24 hours by HPLC.

[3] = Stability assessment on storage, XRPD patterns collected after storage; type: physicochemical; details: maleate
Experimental: Form B in the present invention were stored under 5° C., 25° C./60% relative humidity and 40° C./75% RH for 90 days. XRPD patterns were collected after storage.
Form C of the present invention was stored under 5° C., 25° C./60% RH and 40° C./75% relative humidity for 330 days. XRPD patterns were collected after storage.

[4] = Stability comparison: 1:1 mixed suspension of Form C and Form II stirred in solvent, solid tested by XRPD; type: physicochemical; details: nitromethane, 24 hours, Form C versus Form II
Experimental: 10.0 mg of maleate crystalline Form C and maleate crystalline Form II in CN101918390B were mixed at a ratio of 1:1 and added into 1.0 mL of solvent to obtain a suspension. The suspension was magnetically stirred at 500 rpm at 25° C. for 24 hours, and centrifuged to give a solid which was tested by XRPD.

[5] = Hygroscopicity by dynamic vapor sorption (DVS); type: physicochemical; details: DVS at 25° C., 80% RH; maleate
Experimental: Hygroscopicity of 10 mg of Form C of the present invention was tested using dynamic vapor sorption (DVS) at 25° C. […].
About hygroscopicity characterization description and definition of hygroscopicity (Chinese Pharmacopoeia 2010 edition appendix XIXJ Drug hygroscopic test guidelines, test at 25° C.+/−1° C., 80% Relative Humidity) • deliquescent: sufficient water is absorbed to form a liquid; • very hygroscopic: increase in mass is equal to or greater than 15 percent; • hygroscopic: increase in mass is less than 15 percent and equal to or greater than 2 percent; • slightly hygroscopic: increase in mass is less than 2 percent and equal to or greater than 0.2 percent. • no or almost no hygroscopic: increase in mass is less than 0.2%

In the case of CCOc1cc2ncc(C#N)c(Nc3ccc(OCc4ccccn4)c(Cl)c3)c2cc1NC(=O)/C=C/CN(C)C [Form I], the “Form conversion by absorbing moisture in the air” value [1] is listed as “can easily convert to Form II”.

Compound CCOc1cc2ncc(C#N)c(Nc3ccc(OCc4ccccn4)c(Cl)c3)c2cc1NC(=O)/C=C/CN(C)C [Form B, (2E)-N-[4-[[3-chloro-4-[(pyridin-2-yl)methoxy]phenyl]amino]-3-cyano-7-ethoxyquinolin-6-yl]-4-(dimethylamino)but-2-enamide maleate] has a Solubility ([2]; H2O (high purity water), 1 h) of over 5400 µg/mL, a Solubility ([2]; H2O (high purity water), 4 h) of over 5400 µg/mL and a Solubility ([2]; H2O (high purity water), 24 h) of over 5400 µg/mL. For the same compound, the “Solubility in comparison to maleate Form II in CN101918390B” value [2] was “higher solubility”, the Solubility ([2]; pH 1.8 SGF, 1 h) was over 6700 µg/mL and the Solubility ([2]; pH 1.8 SGF, 4 h) was over 6700 µg/mL. The Solubility ([2]; pH 1.8 SGF, 24 h) was over 6700 µg/mL, the “Form Change” value ([3]; 5° C., 90 days) was “remains unchanged; also recorded: Form B doesn't change” and the “Form Change” value ([3]; 25° C./60% RH, 90 days) was “remains unchanged; also recorded: Form B doesn't change”. The “Form Change” value ([3]; 40° C./75% RH, 90 days) was “remains unchanged; also recorded: Form B doesn't change”.

CCOc1cc2ncc(C#N)c(Nc3ccc(OCc4ccccn4)c(Cl)c3)c2cc1NC(=O)/C=C/CN(C)C [Form II, reference compound] gave a solubility at 1 h ([2]; simulated gastric fluid (SGF), simulated gastric fluid, pH 1.8 SGF, 1 h) of 3300 µg/mL (≈ 5.92 mM), a solubility at 4 h ([2]; simulated gastric fluid (SGF), simulated gastric fluid, pH 1.8 SGF, 4 h) of 3200 µg/mL (≈ 5.74 mM) and a solubility at 24 h ([2]; simulated gastric fluid (SGF), simulated gastric fluid, pH 1.8 SGF, 24 h) of 3100 µg/mL (≈ 5.56 mM). For the same compound, the solubility at 1 h ([2]; H2O (high purity water), 1 h) was 1000 µg/mL (≈ 1.8 mM), the solubility at 4 h ([2]; H2O (high purity water), 4 h) was 940 µg/mL (≈ 1.69 mM) and the solubility at 24 h ([2]; H2O (high purity water), 24 h) was 940 µg/mL (≈ 1.69 mM). The “Stability comparison (form conversion in mixed suspension)” value [4] was “transferred to crystalline Form C”.

In the case of CCOc1cc2ncc(C#N)c(Nc3ccc(OCc4ccccn4)c(Cl)c3)c2cc1NC(=O)/C=C/CN(C)C [Form C, (2E)-N-[4-[[3-chloro-4-[(pyridin-2-yl)methoxy]phenyl]amino]-3-cyano-7-ethoxyquinolin-6-yl]-4-(dimethylamino)but-2-enamide maleate], the “Stability comparison (form conversion in mixed suspension)” value ([4]; maleate) is reported as “more stable than maleate crystalline Form II”, the “weight increment under 80% Relative Humidity” value [5] is reported as 1.01% and the “Form Change” value ([3]; 5° C., 330 days) is reported as “remains unchanged; also recorded: Form C doesn't change”. The “Form Change” value ([3]; 25° C./60% RH, 330 days) was “remains unchanged; also recorded: Form C doesn't change” and the “Form Change” value ([3]; 40° C./75% RH, 330 days) was “remains unchanged; also recorded: Form C doesn't change”.

Compound CCOc1cc2ncc(C#N)c(Nc3ccc(OCc4ccccn4)c(Cl)c3)c2cc1NC(=O)/C=C/CN(C)C [Form A, (2E)-N-[4-[[3-chloro-4-[(pyridin-2-yl)methoxy]phenyl]amino]-3-cyano-7-ethoxyquinolin-6-yl]-4-(dimethylamino)but-2-enamide maleate] has a solubility at 1 h ([2]; pH 1.8, simulated gastric fluid, pH 1.8 SGF, 1 h) of over 8400 µg/mL, a solubility at 4 h ([2]; pH 1.8, simulated gastric fluid, pH 1.8 SGF, 4 h) of over 8400 µg/mL and a solubility at 24 h ([2]; pH 1.8, simulated gastric fluid, pH 1.8 SGF, 24 h) of over 8400 µg/mL. For the same compound, the “Solubility in comparison to maleate Form II in CN101918390B” value [2] was “higher solubility”, the solubility at 1 h ([2]; water, H2O (high purity water), 1 h) was over 3900 µg/mL and the solubility at 4 h ([2]; water, H2O (high purity water), 4 h) was over 3900 µg/mL. The solubility at 24 h ([2]; water, H2O (high purity water), 24 h) was over 3900 µg/mL.
